Earlier results in patent US8791095B2, “Steroidal CYP17 inhibitors/antiandrogens” (Tokai Pharmaceuticals, Inc., priority 2009, dated 2014).
pIC50: −log10 of the molar value.

What was measured:
[1] = system: LAPC4 human prostate tumor xenograft; details: for inhibition of growth of LAPC4 xenograft (in words): in vivo
human CYP17 enzyme = target: T1, human CYP17 enzyme (Homo sapiens, UniProt P05093); details: read-out: IC50, inhibition of human CYP17 enzyme
T1 sequence (P05093 1-508): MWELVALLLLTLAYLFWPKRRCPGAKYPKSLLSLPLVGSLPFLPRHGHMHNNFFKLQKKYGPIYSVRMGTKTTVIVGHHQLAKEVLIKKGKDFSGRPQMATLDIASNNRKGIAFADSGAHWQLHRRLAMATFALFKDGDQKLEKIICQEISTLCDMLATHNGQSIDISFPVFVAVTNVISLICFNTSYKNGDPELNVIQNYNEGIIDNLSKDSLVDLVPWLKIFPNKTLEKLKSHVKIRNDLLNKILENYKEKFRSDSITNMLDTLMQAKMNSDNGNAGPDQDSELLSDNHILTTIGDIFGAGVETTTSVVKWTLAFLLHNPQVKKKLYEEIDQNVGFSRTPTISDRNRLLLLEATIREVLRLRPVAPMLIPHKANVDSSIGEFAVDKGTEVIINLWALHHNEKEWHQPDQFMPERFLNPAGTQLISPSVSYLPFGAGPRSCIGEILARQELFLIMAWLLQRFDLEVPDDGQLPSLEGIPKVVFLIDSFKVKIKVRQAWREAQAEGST

Row | Compound | efficacy compared with castration ([1]; 50 mg/kg, twice daily) | reduction in the mean final tumor volume compared with controls ([1]; 50 mg/kg, twice daily, P=0.00065) [%] | inhibition of growth of LAPC4 xenograft (in words) [1] | pIC50 (human CYP17 enzyme) | conversion into a metabolite (metabolite tentatively identified as 17-(1H-benzimidazol-1-yl)androsta-3-one) | peak plasma level (mice, s.c. 50 mg/kg) [ng/mL] | detectability in plasma at 8 hours (mice, s.c. 50 mg/kg) | terminal half-life in plasma (mice, s.c. 50 mg/kg) [min]
1 | C[C@]12CC[C@H](O)CC1=CC[C@@H]1[C@@H]2CC[C@]2(C)C(n3cnc4ccccc43)=CC[C@@H]12 [Compound 1, 3β-hydroxy-17-(1H-benzimidazole-1-yl)androsta-5,16-diene] | significantly more effective than castration | 93.8 | very effective | 7.30 | rapidly converted into a metabolite | 16.82 | neither was detectable | 
2 | C[C@]12CCC(=O)C=C1CCC1C2CC[C@]2(C)C(n3cnc4ccccc43)=CCC12 (stereo partly shown) [Compound 2, 17-(1H-benzimidazole-1-yl)androsta-4,16-diene-3-one] |  |  | ineffective |  |  | 5.15 | neither was detectable | 39.93
3 | CC12CCC(O)CC1=CCC1C2CCC2(C)C(c3cncnc3)=CCC12 (stereo not drawn) [Compound 3, 3β-hydroxy-17-(5′-pyrimidyl)androsta-5,16-diene] |  |  |  | 6.30 |  |  |  | 
4 | C[C@]12CC[C@H](O)CC1=CC[C@@H]1[C@@H]2CC[C@]2(C)C(c3cccnc3)=CC[C@@H]12 [abiraterone, 3β-hydroxy-17-(pyrid-3-yl)androsta-5,16-diene] |  |  |  | 8.22 to 8.52 |  |  |  | 
